Laboratory results: US8961933B2, “Process for the preparation of aqueous solutions of hyperpolarized molecules” (Bracco Imaging S.p.A., priority 2008, dated 2015)

Experiments:
[1] = Solubility in water; type: physicochemical; settings: compared with alkyne A
Source text: The symmetrical alkyne A, whose formula is reported below, was synthesized by transesterification of the acetylene bis-carboxylic acid bismethyl ester with diethyleneglycol monomethyl ether, in the presence of H2SO4 as catalyst.

[2] = Phase-transfer extraction of the hyperpolarized product into water: 13C signal enhancement and amount transferred; type: physicochemical
Experimental: After the field cycling application, the tube was quickly opened and 0.4 mL of degassed D2O were added; the tube was shaken vigorously for three seconds and then let stand for five seconds, during which phase separation occurred. The water solution was taken by a syringe and transferred into a tube for NMR acquisition.

Row | Compound | solubility in water [1] | quantity transferred into the water phase ([2]; CDCl3/acetone-d6 (6:1) versus D2O, equal volumes) | transfer to the water phase ([2]; after hydrolysis with 0.25 M NaOH in D2O, CDCl3/acetone-d6 6:1)
1 | COCCOCCOC(=O)/C=C\C(=O)OCCOCCOC [B] | higher than that of the alkyne A | about 10 % of the total | –
2 | O=C(O)CCC(=O)O [succinic acid] | – | – | All the succinic acid was transferred to the water phase
